The record followed here is publication PMC9873481 (Nature, 2022).

For data set [1], the target named is T1, hBest2 (Homo sapiens, UniProt Q8NFU1).
T1 sequence (Q8NFU1 1-509): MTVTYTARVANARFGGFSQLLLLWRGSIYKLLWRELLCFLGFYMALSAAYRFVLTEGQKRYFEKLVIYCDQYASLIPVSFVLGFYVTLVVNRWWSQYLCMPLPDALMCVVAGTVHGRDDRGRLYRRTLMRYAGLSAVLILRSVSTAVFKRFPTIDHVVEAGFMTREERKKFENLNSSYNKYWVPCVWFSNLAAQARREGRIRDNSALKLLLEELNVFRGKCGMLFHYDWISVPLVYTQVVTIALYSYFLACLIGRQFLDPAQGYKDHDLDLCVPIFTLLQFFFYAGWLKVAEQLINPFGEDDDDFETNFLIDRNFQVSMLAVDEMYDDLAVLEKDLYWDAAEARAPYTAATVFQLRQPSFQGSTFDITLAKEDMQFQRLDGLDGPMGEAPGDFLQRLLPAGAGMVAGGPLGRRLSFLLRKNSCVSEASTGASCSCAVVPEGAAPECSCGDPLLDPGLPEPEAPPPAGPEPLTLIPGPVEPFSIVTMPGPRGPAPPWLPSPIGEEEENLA
Nature of the data set: whole-cell patch clamp, HEK293. It is filed as cell-based. In general terms: Patch clamp records ionic current or voltage across a cell membrane.

Data set [2] deals with the molecule itself. As to the kind of experiment: cryo-EM structure.

What is called EC50 is the concentration that produces a half-maximal response. On to `N[C@@H](CCC(=O)O)C(=O)O` [glutamate], for which the 50% effective concentration (EC50) in data set [1] was found to be 46 mM.

B1: bovine bestrophin-2, purified for cryo-EM (GFP-His tag removed) (natural protein)
chain: MTVTYTARVAKARFGGFSKLLLLWRGSIYKLLWRELLCFLGLFMALSAAYRFVLTEEQKRYFEKLVLYCDRYASLIPVSFVLGFYVTLVVHRWWNQYLSMPLTDALMCVVVGTVHGHDERGRLYRRTLMRYAGLSGVLILRSVSTAVFKRFPTIDHVVEAGFMTREERKKFENLNSSYNKYWVPCVWFCNLAAQARREGRIRDNGAFKLLLEELNVFRSKCGMLFHYDWISVPLVYTQVVTIAVYSYFLACLIGRQFLDPAQGYKDHDLDLCVPIFTLLQFFFYAGWLKVAEQLINPFGEDDDDFETNFLIDRCFQVSMLAVDEMYDDLAMLEKDLYWDAAEARAPYTAATAFLMQQPSFQGSTFDITLAKEDMQFQRQDGLEAPLNEAHGDFLQRLLPVGTGMGTGGLL
In general, stoichiometry N refers to the number of molecules, sites or subunits per partner or assembly. For the molecule B1, in data set [2], the “stoichiometry N” value was found to be 5.
